The record followed here is patent US9526737B2, “Oxysterols for activation of hedgehog signaling, osteoinduction, antiadipogenesis, and Wnt signaling” (THE REGENTS OF THE UNIVERSITY OF CALIFORNIA, priority 2007, dated 2016).

Experiment [1] relates to marrow stromal cells. Put plainly: Osteoinductive properties (osteoblast differentiation markers: ALP activity, osteocalcin mRNA, mineralization). It counts as cell-based. The following applies: induction of osteoblast differentiation markers. The text has this: Oxysterols discussed in this application include those designated as Oxy22, Oxy26, Oxy27, Oxy28, Oxy39, Oxy40, Oxy41, Oxy42, Oxy48, Oxy49, Oxy20, Oxy34, Oxy36, Oxy38, Oxy50, Oxy51, Oxy52, and Oxy53. At least the following oxysterols have been identified as osteoinductive: Oxy22, Oxy26, Oxy27, Oxy28, Oxy39, Oxy40, Oxy41, Oxy42, Oxy48, Oxy49, Oxy50, Oxy51, Oxy52, and Oxy53. The osteoinductive properties of these oxysterols is shown by their ability to induce the expression of various osteoblast differentiation markers, including alkaline phosphatase activity, osteocalcin mRNA expression, and mineralization. These oxysterols are activators of the hedgehog signaling pathway.

For experiment [2], the system named is M2-10B4 marrow stromal cells. Kind of experiment: Alkaline phosphatase (ALP) activity assay. The following applies: for Alkaline phosphatase activity versus control vehicle (significance): 1.25 μM, 3 days, p>0.05; for fold induction at 1.25 µM / fold induction at 2.5 µM / fold induction at 5 µM: M210B4, 72 h.
Protocol: The protocol is a modification of alkaline phosphatase assay kit from Sigma. Cells are cultured in 24-well tissue culture plates. After treatments with test agents, cells are rinsed twice with PBS and scraped into 200 ml of lysis buffer (0.2% NP-40 in 1 mM MgCl2) and sonicated for 10 seconds. Next, 1 ml of reaction mixture is added to each well. Reaction mixture is 221 alkaline buffer (Sigma): stock substrate solution (1:1). Stock substrate solution is prepared by dissolving 40 mg of Sigma 104 phosphatase substrate in 10 ml of ddH2O. After addition of reaction mixture to lysed cells, incubation is performed for 30 minutes at 37 C. […] The reaction is stopped by the addition of 12 ml of 1N NaOH to each well, and absorbance is determined at 405 nm. Alkaline phosphatase activity is calculated using p-nitrophenol as a standard, according to Sigma kit's instructions. Results are normalized to total protein in each well determined using the Bio-Rad protein assay solution (Bio-Rad Laboratories).
M2-10B4 marrow stromal cells were treated with oxysterols at various doses for 3 days after which they were collected and analyzed by calorimetric assay for alkaline phosphatase activity (a marker of osteoblastic differentiation) (Table 1); the alkaline phosphatase assay described above was used.
M2-10B4 marrow stromal cells were treated with oxysterols at various doses for 3 days after which they were collected and analyzed by colorimetric assay for alkaline phosphatase activity (a marker of osteoblastic differentiation) (Table 2); the alkaline phosphatase assay described above was used.
M2-10B4 bone marrow stromal cells were treated in culture with control vehicle (C) or various oxysterol (Oxy) molecules as indicated at either 1.25 (1) or 2.5 (2) μM concentrations. After 3 days of treatment, alkaline phosphatase activity as a measure of early osteogenic differentiation of cells was measured in whole cell lysates (See FIG. 9 and Table 3); the alkaline phosphatase assay described above was used.
Setting [3] is: read-out: Fold Induction in alkaline phosphatase activity over control untreated cells.
The mark [4] stands for this setting: read-out: Fold Induction in alkaline phosphatase activity compared to control untreated cells.

The structures appear in SMILES notation. Where two headings read alike, the source gives them in different places.

As for `C[C@]12CC[C@H](O)C[C@@H]1[C@@H](O)C[C@@H]1[C@@H]2CC[C@@]2(C)[C@H]1CC[C@@H]2[C@@](C)(O)CC#Cc1cccs1` [Oxy51, (3S,5S,6S,8R,9S,10R,13S,14S,17S)-17-((S)-2-hydroxy-5-(thiophen-2-yl)pent-4-yn-2-yl)-10,13-dimethylhexadecahydro-1H-cyclopenta[a]phenanthrene-3,6-diol], the Osteoinductive property result in experiment [1] is listed as “osteoinductive”. Also, the “Alkaline phosphatase activity versus control vehicle (significance)” value in experiment [2] is recorded as “not significant”. Besides, in experiment [2] (setting [3]), the fold induction at 1.25 µM amounted to 3 and the fold induction at 2.5 µM is 20.

Regarding `C[C@]12CC[C@H](O)C[C@@H]1[C@@H](O)C[C@@H]1[C@@H]2CC[C@@]2(C)[C@H]1CC[C@@H]2[C@@](C)(O)CCCc1ccccc1` [Oxy53, (3S,5S,6S,8R,9S,10R,13S,14S,17S)-17-((S)-2-hydroxy-5-phenylpentan-2-yl)-10,13-dimethylhexadecahydro-1H-cyclopenta[a]phenanthrene-3,6-diol], the Osteoinductive property entry in experiment [1] is reported as “osteoinductive”. In addition, the “Alkaline phosphatase activity versus control vehicle (significance)” value in experiment [2] was “not significant”. In addition, in experiment [2] (setting [3]), the fold induction at 1.25 µM stood at 2 and the fold induction at 2.5 µM is 11.

As to `CC(=O)O[C@H]1CC2C3CCC([C@@](C)(O)CCCC(C)C)[C@@]3(C)CCC2[C@@]2(C)CC[C@H](O)C[C@H]12` (stereo partly shown) [Oxy28], in experiment [1], the Osteoinductive property entry is given as “osteoinductive”. In experiment [2] (setting [4]), the fold induction at 2.5 µM was 59 and the fold induction at 5 µM worked out at 75.

In the case of `C[C@]12CC[C@H]3[C@@H](CC=C4C[C@@H](O)CC[C@@]43C)[C@@H]1CC[C@@H]2[C@@](C)(O)CCCc1cccs1` [Oxy42, (3S,8S,9S,10R,13S,14S,17S)-17-((S)-2-Hydroxy-5-(thiophen-2-yl)pentan-2-yl)-10,13-dimethyl-2,3,4,7,8,9,10,11,12,13,14,15,16,17-tetradecahydro-1H-cyclopenta[a]phen-anthren-3-ol], the Osteoinductive property result in experiment [1] is “osteoinductive”. Further, in experiment [2] (setting [4]), the fold induction at 2.5 µM worked out at 166 and the fold induction at 5 µM was 290.

In the case of `C[C@]12CC[C@H]3[C@@H](CC=C4C[C@@H](O)CC[C@@]43C)[C@@H]1CC[C@@H]2[C@@](C)(O)CCc1ccccc1F` [Oxy39, (3S,8S,9S,10R,13S,14S,17S)-17-((S)-4-(2-Fluorophenyl)-2-hydroxybutan-2-yl)-10,13-dimethyl-2,3,4,7,8,9,10,11,12,13,14,15,16,17-tetradecahydro-1H-cyclopenta[a]phen-anthren-3-ol], the Osteoinductive property result in experiment [1] is recorded as “osteoinductive”. For the same compound, in experiment [2] (setting [4]), the fold induction at 2.5 µM stood at 52 and the fold induction at 5 µM stood at 148.

For `C[C@]12CC[C@H]3[C@@H](CC=C4C[C@@H](O)CC[C@@]43C)[C@@H]1CC[C@@H]2[C@@](C)(O)CC#Cc1cccs1` [Oxy26, (3S,8S,9S,10R,13S,14S,17S)-17-((S)-2-Hydroxy-5-(thiophen-2-yl)pent-4-yn-2-yl)-10,13-dimethyl-2,3,4,7,8,9,10,11,12,13,14,15,16,17-tetradecahydro-1H-cyclopenta-[a]phenanthren-3-ol], the Osteoinductive property entry in experiment [1] is listed as “osteoinductive”. Further, in experiment [2] (setting [4]), the fold induction at 2.5 µM was determined as 27 and the fold induction at 5 µM stood at 76.

Regarding `C=C(C)CCC[C@](C)(O)[C@H]1CC[C@H]2[C@@H]3C[C@H](OC(C)=O)[C@H]4C[C@@H](O)CC[C@]4(C)[C@H]3CC[C@@]21C` [Oxy41, (3S,5S,6S,8R,9S,10R,13S,14S,17S)-3-Hydroxy-17-((S)-2-hydroxy-6-methylhept-6-en-2-yl)-10,13-dimethylhexadecahydro-1H-cyclopenta[a]phenanthren-6-yl acetate], the Osteoinductive property entry in experiment [1] is listed as “osteoinductive”. Besides, in experiment [2] (setting [4]), the fold induction at 2.5 µM was determined as 46 and the fold induction at 5 µM came out at 175.

For `C[C@]12CC[C@H]3[C@@H](CC=C4C[C@@H](O)CC[C@@]43C)[C@@H]1CC[C@@H]2[C@@](C)(O)CCc1ccccc1` [Oxy27, (3S,8S,9S,10R,13S,14S,17S)-17-((S)-2-Hydroxy-4-phenylbutan-2-yl)-10,13-dimethyl-2,3,4,7,8,9,10,11,12,13,14,15,16,17-tetradecahydro-1H-cyclopenta[a]phenanthren-3-ol], in experiment [1], the Osteoinductive property result was “osteoinductive”. Moreover, in experiment [2] (setting [4]), the fold induction at 2.5 µM was determined as 17 and the fold induction at 5 µM worked out at 42.

As to `C[C@]12CC[C@H](O)C[C@@H]1[C@@H](O)C[C@@H]1[C@@H]2CC[C@@]2(C)[C@H]1CC[C@@H]2[C@@](C)(O)CCCc1cccs1` [Oxy50, (3S,5S,6S,8R,9S,10R,13S,14S,17S)-17-((S)-2-hydroxy-5-(thiophen-2-yl)pentan-2-yl)-10,13-dimethylhexadecahydro-1H-cyclopenta[a]phenanthrene-3,6-diol], the Osteoinductive property entry in experiment [1] is recorded as “osteoinductive”. For the same compound, in experiment [2] (setting [3]), the fold induction at 1.25 µM stood at 25 and the fold induction at 2.5 µM amounted to 65.

`CC(C)C/C=C/[C@](C)(O)C1CC[C@H]2[C@@H]3CC=C4C[C@@H](O)CC[C@]4(C)[C@H]3CC[C@]12C` (stereo partly drawn) [Oxy20, (3S,8S,9S,10R,13S,14S)-17-((S,E)-2-hydroxy-6-methylhept-3-en-2-yl)-10,13-dimethyl-2,3,4,7,8,9,10,11,12,13,14,15,16,17-tetradecahydro-1H-cyclopenta[a]phenanthren-3-ol]: in experiment [2] (setting [4]), the fold induction at 2.5 µM was determined as 36 and the fold induction at 5 µM was determined as 68.

As to `CC(CO)CCC[C@](C)(O)[C@H]1CC[C@H]2[C@@H]3C[C@H](O)[C@H]4C[C@@H](O)CC[C@]4(C)[C@H]3CC[C@@]21C` (stereo partly drawn) [Oxy48, (3S,5S,6S,8R,9S,10R,13S,14S,17S)-17-((2S)-2,7-Dihydroxy-6-methylheptan-2-yl)-10,13-dimethylliexadecahydro-1H-cyclopenta[a]phenanthrene-3,6-diol], the Osteoinductive property entry in experiment [1] is “osteoinductive”. Further, in experiment [2] (setting [4]), the fold induction at 2.5 µM was 11 and the fold induction at 5 µM came out at 43.

On to `CC(CO)CCC[C@](C)(O)[C@H]1CC[C@H]2[C@@H]3CC=C4C[C@@H](O)CC[C@]4(C)[C@H]3CC[C@@]21C` (stereo partly shown) [Oxy40], for which the Osteoinductive property entry in experiment [1] is “osteoinductive”. Moreover, in experiment [2] (setting [4]), the fold induction at 2.5 µM worked out at 28 and the fold induction at 5 µM is 105.

For `C[C@]12CCC3C(CC=C4C[C@@H](O)CC[C@@]43C)C1CCC2[C@@](C)(O)CCCc1ccccc1` (stereo partly shown) [Oxy22], the Osteoinductive property result in experiment [1] is recorded as “osteoinductive”. Also, in experiment [2] (setting [4]), the fold induction at 2.5 µM came out at 4 and the fold induction at 5 µM was 9.

For `C[C@]12CC[C@H](O)C[C@@H]1[C@@H](O)C[C@@H]1[C@@H]2CC[C@@]2(C)[C@H]1CC[C@@H]2[C@@](C)(O)CCc1ccccc1` [Oxy52, (3S,5S,6S,8R,9S,10R,13S,14S,17S)-17-((S)-2-hydroxy-4-phenylbutan-2-yl)-10,13-dimethylhexadecahydro-1H-cyclopenta[a]phenanthrene-3,6-diol], the Osteoinductive property result in experiment [1] is recorded as “osteoinductive”. Also, in experiment [2] (setting [3]), the fold induction at 1.25 µM was found to be 5 and the fold induction at 2.5 µM turned out to be 22.
